KM and Kd data for 3 compounds are collected here from publication PMC12928749 (ACS catalysis, 2025).

Assay [1] has as its target T1, TyrH (heme-dependent tyrosine hydroxylase) (Streptomyces sclerotialus, UniProt Z9QGI7APK5).
T1 sequence (Z9QGI7APK5 1-314): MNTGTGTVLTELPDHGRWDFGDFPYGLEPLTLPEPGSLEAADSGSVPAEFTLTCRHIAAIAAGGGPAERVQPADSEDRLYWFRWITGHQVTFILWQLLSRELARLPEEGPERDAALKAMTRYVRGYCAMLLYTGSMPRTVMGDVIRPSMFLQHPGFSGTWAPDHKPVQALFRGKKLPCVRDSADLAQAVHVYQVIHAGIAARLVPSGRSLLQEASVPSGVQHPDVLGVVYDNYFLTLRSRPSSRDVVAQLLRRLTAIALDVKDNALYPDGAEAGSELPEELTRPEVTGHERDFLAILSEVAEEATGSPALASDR
In words: steady-state kinetics. Format: biochemical. As to conditions: co-substrate H2O2.

Assay [2] deals with T1, TyrH (heme-dependent tyrosine hydroxylase). The experiment in a line: UV-vis titration. Format: binding. Conditions: 100 mM potassium phosphate, 50 mM NaCl, pH 7.4; ferric enzyme.

As to `O=C(O)CCc1ccc(O)cc1` [HPPA, 3-(4-hydroxyphenyl)propionic acid], the KM result in assay [1] is “The KM values for both tyrosine and HPPA were comparable (Figure S8)”.

Usually Kd stands for the free concentration of one partner at which half of the binding sites on the other are occupied at equilibrium, for simple one-to-one binding. Read a high Kd as a looser complex. Compound `O=Nc1ccccc1` [NB, nitrosobenzene] registered a Kd in assay [2] of 296 ± 8 µM.

Regarding `N[C@@H](Cc1ccc(O)cc1)C(=O)O` [L-Tyr, L-tyrosine], the KM result in assay [1] was “The KM values for both tyrosine and HPPA were comparable (Figure S8)”.
